# Assay results as given in patent publication EP1676574A2, “Methods for promoting survival of transplanted tissues and cells” (Johnson & Johnson Vision Care, Inc., priority 2004, dated 2006).
# Tests used:
# [1] = tested on: isolated mouse islets; experiment: Plasma clotting assay with isolated mouse islets; type: cell-based, Balb/c mice; conditions: 10 µM p38 inhibitor, islets cultured 72 hours; 50 islets/well; vehicle control 388.6 (compound 2 experiment), 488.9 (second experiment)
# Method: Pancreata were harvested from Balb/c mice via cannulation of the common bile duct and perfusion with a liberase solution (Roche). Pancreata were digested at 37°C for 15 minutes followed by discontinuous ficoll gradient centrifugation to remove acinar and ductal tissue.
# Islets of similar size were collected and plated in 3 ml of islet growth medium in a 6-well culture dish (300 islets per well) with or without p38 MAPK inhibitors (10 µM compound 1 or compound 2). Vehicle control was an equivalent dilution of DMSO. Islets were cultured at 37°C in 5% CO2 for 72 hours. The three treatment conditions were: vehicle control, (+) p38 inhibitor compound 1, and (+)p38 inhibitor compound 2.
# Plasma Clotting Assay. […] Clotting was monitored at 15 second intervals for 2 hours at room temperature in a Spectra MAX 190 (Molecular Devices, Sunnyvale, CA) at 405nm. Times to half maximum OD were calculated as 388.6 seconds for the vehicle control and 596.9 seconds for cells treated with p38 inhibitor compound 2. […] In a second experiment, the time to half maximum was calculated as 488.9 seconds for the vehicle control and 974.7 seconds for treated islets. […]
# [2] = tested on: J82 cells; experiment: Plasma clotting assay with J82 bladder carcinoma cells; type: cell-based, human; conditions: p38 inhibitor 10 µM pre-culture 10 days; anti-TF antibody 30 minutes pre-binding; untreated cells 155.01
# Method: (§1) In the previous example, cells were stimulated overnight to produce TF by LPS induction. Inhibition of this process was achieved by addition of p38 inhibitor compound 1, evaluated by plasma clotting assay. In this example, two types of cells were pre-cultured with the p38 inhibitors compound 1 and compound 2 for 10 days to evaluate the effect of p38 MAPK inhibitors on coagulation. Cells were separately treated using a final concentration of 10 µM of each p38 inhibitor. Parallel treatments of DMSO vehicle were included as a control. Media, containing the above compounds were replenished during culture at intervals of every 2 days.
# (§2) Human mesenchymal stem cells (MSC) were isolated from whole bone marrow purchased from Cambrex BioScience Walkersville, Inc. Cells were obtained from 10-ml aspirates taken from the iliac crest of normal human donors (age about 20 years). Mononuclear cells were isolated by gradient centrifugation. […]
# (§3) The plasma clotting assay was performed as described in Example 1. Cells were lightly trypsinized from culture on the day of assay, washed, counted, and viability was determined before adjusting to 10^6 cells/ml in HBSS. […] Coagulation was monitored at room temperature in a kinetic plate reader using 15 second interval readings at 405 nm over 60 to 120 minutes. A final reading of T1/2 maximal clotting time was obtained for each sample condition. […]
# [3] = tested on: Human mesenchymal stem cells (MSC); experiment: Plasma clotting assay with human mesenchymal stem cells; type: cell-based; conditions: p38 inhibitor 10 µM pre-culture 10 days; anti-TF antibody 30 minutes pre-binding; untreated cells 1042.0
# Method: as §1, §2, §3
# [4] = tested on: Peripheral blood mononuclear cells (PBMCs); experiment: Plasma clotting assay with PBMCs; type: cell-based, human; conditions: p38 inhibitor 10 µM pre-incubated 18 to 24 hours, anti-TF antibody added 30 minutes prior to clotting, OD405
# Method: Peripheral venous blood was obtained by consent from normal, healthy volunteers and mononuclear cells were isolated using Histopaque 1077 (Sigma) density gradient centrifugation. Following three washes with RPMI (Invitrogen) supplemented with 1% fetal calf serum (FCS), cells were counted and viability was assessed using a Guava PCA-96 instrument (Guava Technologies, Hayward, CA). Cells were resuspended to 1.67 x 10^6 cells/mL in RPMI media containing 10% FCS, and 4 mL/well were added to a 6-well dish (Corning-Costar). Lipopolysaccharide (LPS) was diluted into cell cultures to a final concentration of 10 ng/ml. p38 inhibitor compound 1 was added to cell cultures at a final concentration of 10 µM. An equivalent dilution of DMSO was added to untreated cultures. The following four assay conditions were: (+) LPS (+) p38 inhibitor, (+) LPS (-) p38 inhibitor, (-) LPS (+) p38 inhibitor, and (-) LPS (-) p38 inhibitor. […]
# Plasma Clotting Assay. […] Clotting was monitored at 15 second intervals for 2 hours at room temperature using a Spectra MAX 190 (Molecular Devices, Sunnyvale, CA) at a wavelength of 405 nm. […]
# PBMCs ([…] in 100 µl of HBSS) were pre-incubated with 25 µl of anti-TF antibody compound 3 (10 µg/ml) for 30 minutes at room temperature in the same 96-well plate as the untreated cells above. […] CaCl2 and pooled human plasma were added and the clotting reaction was monitored as described above.
structure (smiles),measurement,setting,value
"OCCC#Cc1nc(-c2ccc(F)cc2)c(-c2ccncc2)n1CCCc1ccccc1 [compound 1, 4-[4-(4-fluorophenyl)-1-(3-phenylpropyl)-5-(4-pyridinyl)-1H-imidazol-2-yl]-3-butyn-1-ol]",Times to half maximum OD,[1],974.7 s
same,times to reach ½ maximal OD,[2],160.9 s
same,time to half the maximum OD,[3],1882.2 s
same,time to half the maximum OD,"[4]; (+) LPS 10 ng/ml, (+) LPS cells without inhibitor 928.6",1837.3 s
same,time to half the maximum OD,"[4]; (-) LPS, untreated cells 2946.4",3289.0 s
